Earlier results in US11197823B2, “Topiramate oral liquid suspension and use thereof” (OWP Pharmaceuticals, Inc., priority 2019, dated 2021).

solubility in organic solvents and alkaline solutions (acetone, dimethyl sulfoxide, ethanol, and alkaline solutions containing sodium hydroxide or sodium phosphate): freely soluble
solubility in water (water, room temperature): approximately 9.8 mg/mL
SMILES: CC1(C)O[C@@H]2[C@@H](CO[C@@]3(COS(N)(=O)=O)OC(C)(C)O[C@@H]23)O1 [Topiramate, 2,3:4,5-Di-O-isopropylidene-β-D-fructopyranose sulfamate]
